The results in this text go back to patent US20250034165A1, “COMPOUND CONTAINING CYCLOALKYL OR HALOALKYL” (CHIA TAI TIANQING PHARMACEUTICAL GROUP CO., LTD., priority 2021, published 2025).

The target of data set [1] is EGFR (L858R/T790M) (Homo sapiens (Human), UniProt P00533, L858R/T790M). Put plainly: Inhibitory activity for EGFR (L858R/T790M) kinase. The data set is classed as biochemical. The settings on record: ATP 5 μM. As to the method: (§1) A 50 ng/μL EGFR (L858R/T790M, Carna) stock solution was diluted with a kinase buffer (50 mM HEPES, 10 mM MgCl2, 2 mM DTT, 1 mM EGTA, 0.01% Tween 20), and 6 μL of 1.67× working solution at 0.004175 ng/μL (final concentration: 0.0025 ng/μL) was added to each well. Different compounds dissolved in DMSO were added to wells using a nanoliter pipettor, resulting in the final concentrations of the compounds of 10 nM to 0.0024 nM (4-fold gradient, 7 concentrations in total), and blank control wells (without enzyme) and negative control wells (with enzyme, plus vehicle DMSO) were set, 2 replicate wells for each concentration. After enzyme was reacted with the compound or vehicle for 30 min, 5×ATP at 25 μM (final concentration: 5 μM, Sigma) prepared with a kinase buffer was mixed with 5× substrate at 0.5 μM (final concentration: 0.1 μM, ULight-poly GT, PerkinElmer) at a ratio of 1:1 (v:v), and the mixture was added to each well at 4 μL/well. After being sealed with a film, the plate was incubated at room temperature for 2 h, and then 5 μL of 4×EDTA at 40 mM (final concentration: 10 mM) was added to each well. After the plate was incubated for 5 min at room temperature, 5 μL of 4× detection reagent at 8 nM (final concentration: 2 nM, Eu-anti-phospho-tyrosine antibody, PerkinElmer) was added to each well. After being incubated at room temperature for 1 h, the plate was read using a PerkinElmer Envision multi-mode microplate reader (excitation: 320 nm, emission: 665 nm), and IC50 was calculated by four-parameter fitting.
EGFR (L858R/T790M), sequence (P00533 25-1210 T790M/L858R): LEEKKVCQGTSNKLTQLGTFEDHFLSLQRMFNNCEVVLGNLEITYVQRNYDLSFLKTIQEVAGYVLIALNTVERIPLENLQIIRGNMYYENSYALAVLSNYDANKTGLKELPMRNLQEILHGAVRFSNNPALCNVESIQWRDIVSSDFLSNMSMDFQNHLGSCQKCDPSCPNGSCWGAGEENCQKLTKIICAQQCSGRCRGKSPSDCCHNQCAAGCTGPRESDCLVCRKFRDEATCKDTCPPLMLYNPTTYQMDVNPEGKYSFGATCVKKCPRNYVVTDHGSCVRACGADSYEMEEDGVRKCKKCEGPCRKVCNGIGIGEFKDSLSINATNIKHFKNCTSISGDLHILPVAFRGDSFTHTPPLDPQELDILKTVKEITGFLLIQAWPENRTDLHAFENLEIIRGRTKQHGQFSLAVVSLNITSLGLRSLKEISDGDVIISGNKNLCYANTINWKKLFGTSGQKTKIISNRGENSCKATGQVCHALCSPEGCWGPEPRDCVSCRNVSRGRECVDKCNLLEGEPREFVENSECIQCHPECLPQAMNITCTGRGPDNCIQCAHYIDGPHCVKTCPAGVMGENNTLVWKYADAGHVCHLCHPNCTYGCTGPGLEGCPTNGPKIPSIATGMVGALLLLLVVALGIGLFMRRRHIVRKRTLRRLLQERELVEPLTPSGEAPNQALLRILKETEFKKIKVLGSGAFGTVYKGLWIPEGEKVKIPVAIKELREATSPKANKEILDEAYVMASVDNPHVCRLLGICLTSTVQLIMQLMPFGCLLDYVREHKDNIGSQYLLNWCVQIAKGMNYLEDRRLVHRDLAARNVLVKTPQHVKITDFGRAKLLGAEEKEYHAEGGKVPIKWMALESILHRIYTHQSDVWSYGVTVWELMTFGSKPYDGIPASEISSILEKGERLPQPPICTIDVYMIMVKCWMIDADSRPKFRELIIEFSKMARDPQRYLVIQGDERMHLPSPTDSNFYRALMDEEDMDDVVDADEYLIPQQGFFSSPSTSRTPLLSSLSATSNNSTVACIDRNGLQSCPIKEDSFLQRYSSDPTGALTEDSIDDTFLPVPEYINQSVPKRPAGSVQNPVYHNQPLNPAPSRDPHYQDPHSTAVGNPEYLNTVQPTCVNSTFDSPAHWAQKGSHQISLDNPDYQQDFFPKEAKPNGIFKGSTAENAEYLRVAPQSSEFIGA

The target of data set [2] is EGFR (L858R/T790M/C797S) (Homo sapiens (Human), UniProt P00533, C797S/L858R/T790M). Put plainly: Inhibitory activity for EGFR (L858R/T790M/C797S) kinase. In kind it is biochemical. The conditions noted are these: ATP 5 μM. The procedure: as §1, with “(L858R/T790M/C797S, BPS)” for “(L858R/T790M, Carna)”, “0.00167” for “0.004175”, “0.001” for “0.0025”
EGFR (L858R/T790M/C797S), sequence (P00533 25-1210 T790M/C797S/L858R): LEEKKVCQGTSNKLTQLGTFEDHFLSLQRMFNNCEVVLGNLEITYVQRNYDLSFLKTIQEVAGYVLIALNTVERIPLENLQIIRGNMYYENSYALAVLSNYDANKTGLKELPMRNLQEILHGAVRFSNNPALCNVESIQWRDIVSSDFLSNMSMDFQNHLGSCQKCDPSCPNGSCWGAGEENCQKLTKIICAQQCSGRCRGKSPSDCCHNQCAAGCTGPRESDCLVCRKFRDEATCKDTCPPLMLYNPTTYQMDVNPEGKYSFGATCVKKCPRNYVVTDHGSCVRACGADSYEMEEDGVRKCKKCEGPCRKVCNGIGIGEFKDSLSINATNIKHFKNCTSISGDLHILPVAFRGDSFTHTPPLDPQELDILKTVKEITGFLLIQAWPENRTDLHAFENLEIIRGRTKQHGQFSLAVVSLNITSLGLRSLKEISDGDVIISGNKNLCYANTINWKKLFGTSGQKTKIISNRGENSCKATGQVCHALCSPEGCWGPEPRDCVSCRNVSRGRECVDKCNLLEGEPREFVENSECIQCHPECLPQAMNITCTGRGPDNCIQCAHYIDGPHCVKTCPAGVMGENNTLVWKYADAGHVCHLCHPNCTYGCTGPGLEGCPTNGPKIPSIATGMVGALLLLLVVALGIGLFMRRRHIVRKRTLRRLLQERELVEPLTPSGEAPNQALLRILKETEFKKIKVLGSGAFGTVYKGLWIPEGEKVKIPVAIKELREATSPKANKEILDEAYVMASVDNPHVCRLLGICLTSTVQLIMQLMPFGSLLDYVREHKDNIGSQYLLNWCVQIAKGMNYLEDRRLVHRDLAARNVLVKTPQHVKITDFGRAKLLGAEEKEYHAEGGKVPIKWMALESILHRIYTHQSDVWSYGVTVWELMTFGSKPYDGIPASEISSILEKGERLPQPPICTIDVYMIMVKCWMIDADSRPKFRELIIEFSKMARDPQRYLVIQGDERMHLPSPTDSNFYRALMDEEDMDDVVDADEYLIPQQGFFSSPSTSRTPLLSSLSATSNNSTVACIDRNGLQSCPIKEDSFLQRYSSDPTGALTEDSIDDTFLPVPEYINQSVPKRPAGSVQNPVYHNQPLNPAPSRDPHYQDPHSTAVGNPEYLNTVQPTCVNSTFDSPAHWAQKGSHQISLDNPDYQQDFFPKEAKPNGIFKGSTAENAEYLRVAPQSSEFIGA
A short description of data set [3]: In vitro stability in liver microsomes. The data set is classed as in vitro ADME. The settings on record: Human liver microsome. (In general: Microsomes from liver hold many membrane-bound enzymes, among them those of drug oxidation.)
Data set [4] has as its system PC-9 EGFR-Del19-T790M-C797S cells. Put plainly: Inhibition of proliferation of PC-9-EGFR (Del19 T790M C797S) cells, CCK-8. The data set is classed as cell-based. The conditions noted are these: 72 h, read-out: PC-9-EGFR (Del19 T790M C797S) cell inhibitory activity IC50. Put shortly:
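Cells seeded at 2×10^4 cells/mL were treated 72 h with compound at 1000 nM-0.06 nM final, in replicate wells. CCK-8 absorbance at 450 nm after 2 h gave inhibition rate relative to negative control and blank. IC50 from four-parameter fit against log concentration.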

Structures are written as SMILES.

The term IC50 denotes the concentration needed to halve the response being measured. Regarding `C[C@H](Nc1ccc2c(c1)N/C1=N\C(=O)c3cc(F)nc(c3)-c3cnn(C)c3OCCC[C@@H](C3CC3)CN12)C(F)(F)F` [Example 9], the IC50 in data set [1] was 0.45 nM; in data set [2] it was 0.5 nM. Moreover, the “Stability in liver microsomes (residual %, T = 60 min)” value (from here on “Stability … (residual %, T = 60 min)”) in data set [3] is recorded as 59.54%.
Turning to `Cc1cc2cc(n1)-c1cnn(C)c1OCCC[C@@H](C1CC1)CN1/C(=N/C2=O)Nc2ccc(C=CCCN(C)C)cc21` [Example 24], the IC50 amounted to 0.031 nM in data set [1] and 0.02 nM in data set [2].
On to `Cc1cc2cc(n1)-c1cnn(C)c1OCCC[C@@H](C1CC1)CN1/C(=N/C2=O)Nc2cc(N[C@H]3CC[C@H](N(C)C)CC3)ccc21` [Example 25], for which the IC50 in data set [1] is 0.021 nM; in data set [2] it was 0.014 nM; in data set [4], below 50 nM. Also, the “Stability … (residual %, T = 60 min)” value in data set [3] is reported as 103.07%.
In the case of `Cc1cc2cc(n1)-c1cnn(C)c1OCCC[C@@H](C1CC1)CN1/C(=N/C2=O)Nc2cc(N[C@H]3CC[C@@H](N(C)C)CC3)ccc21` [Example 26], the values for the concentration for half-maximal inhibition (IC50) in data set [1], in data set [2] and in data set [4] were 0.025 nM, 0.017 nM and below 50 nM, respectively. For the same molecule, the “Stability … (residual %, T = 60 min)” value in data set [3] is 98.30%.
As to `Cc1cc2cc(n1)-c1cnn(C)c1OCCC[C@@H](C1CC1)CN1/C(=N/C2=O)Nc2ccc(NCCN(C)C)cc21` [Example 28], in data set [4], the concentration for half-maximal inhibition (IC50) is below 50 nM.
`Cc1cc2cc(n1)-c1cnn(C)c1OCCC[C@@H](C1CC1)CN1/C(=N/C2=O)Nc2cc(NC3(C)COC3)ccc21` [Example 29]: the concentration for half-maximal inhibition (IC50) in data set [4] is below 50 nM.
With `Cc1cc2cc(n1)-c1cnn(C)c1OCCC[C@@H](C1CC1)CN1/C(=N/C2=O)Nc2cc(N[C@H](C)C3COC3)ccc21` [Example 39], the IC50 in data set [1] was 0.04 nM; in data set [2], 0.027 nM; in data set [4] it was below 50 nM.
`Cc1cc2cc(n1)-c1cnn(C)c1OC[C@H](C1CC1)CCCn1c(nc3ccc(NC4COC4)cc31)NC2=O` [Example 59]: the figures for the half-inhibitory concentration (IC50) in data set [1] and in data set [2] were 0.081 nM and 0.085 nM, respectively.
For the molecule `Cc1cc2cc(n1)-c1cnn(C)c1OC[C@H](C1CC1)CCCn1c(nc3cc(NC4COC4)ccc31)NC2=O` [Example 60], the IC50 in data set [1] amounted to 0.09 nM; in data set [2], 0.081 nM.
Turning to `Cc1cc2cc(n1)-c1cnn(C)c1OCCC[C@@H](C1CC1)CN1/C(=N/C2=O)Nc2cc(NC3(C(F)(F)F)COC3)ccc21` [Example 88], the 50% inhibitory concentration (IC50) was determined as 0.01 nM in data set [1] and 0.177 nM in data set [2].
